Measurements: ChEMBL document CHEMBL1151727, “Citrullination of linear and cyclic altered peptide ligands from myelin basic protein (MBP(87-99)) epitope elicits a Th1 polarized response by T cells isolated from multiple sclerosis patients: implications in triggering disease” (J Med Chem, 2008)
Active and inactive are the calls of the source. Where a SMILES comes first, the peptide text is derived from it. [ ]: non-standard residue; d: D form. Cit = NC(=O)NCCC[C@H](N)C(=O)O

Legend:
Format in all cases: functional, cell-based
PBMC [1] = experiment: Induction of IL10 secretion in healthy human PBMC at 10 pg/mL per 10^6 cells after 72 hrs by ELISA
PBMC [2] = experiment: Decrease in IL10 secretion in PBMC isolated from multiple sclerosis patient at 10 pg/mL per 10^6 cells after 72 hrs by ELISA; details: Homo sapiens
PBMC [3] = experiment: Induction of IFN-gamma secretion in healthy human PBMC at 10 pg/mL per 10^6 cells after 72 hrs by ELISA
PBMC [4] = experiment: Increase in IL2 secretion in PBMC isolated from multiple sclerosis patient at 10 pg/mL per 10^6 cells after 72 hrs by ELISA; details: Homo sapiens
PBMC [5] = experiment: Increase in IFN-gamma secretion in PBMC isolated from multiple sclerosis patient at 10 pg/mL per 10^6 cells after 72 hrs by ELISA; details: Homo sapiens

Measured: Activity

CC[C@H](C)[C@H](NC(=O)[C@H](CC(N)=O)NC(=O)[C@H](CCCCN)NC(=O)[C@H](Cc1ccccc1)NC(=O)[C@H](Cc1ccccc1)NC(=O)[C@H](Cc1cnc[nH]1)NC(=O)[C@@H](N)C(C)C)C(=O)N[C@H](C(=O)N[C@H](C(=O)N1CCC[C@H]1C(=O)N[C@@H](CCCNC(=N)N)C(=O)N[C@H](C(=O)N1CCC[C@H]1C(=O)O)[C@@H](C)O)[C@@H](C)O)C(C)C
active: PBMC [1] | PBMC [2]

H-VHFFRNIVTARTP-OH
active: PBMC [1] | PBMC [3]

CC[C@H](C)[C@H](NC(=O)[C@H](CC(N)=O)NC(=O)[C@H](CCCNC(N)=O)NC(=O)[C@H](Cc1ccccc1)NC(=O)[C@H](Cc1ccccc1)NC(=O)[C@H](Cc1cnc[nH]1)NC(=O)[C@@H](N)C(C)C)C(=O)N[C@H](C(=O)N[C@H](C(=O)N[C@@H](C)C(=O)N[C@@H](CCCNC(N)=O)C(=O)N[C@H](C(=O)N1CCC[C@H]1C(=O)O)[C@@H](C)O)[C@@H](C)O)C(C)C (H-VHFF[Cit]NIVTA[Cit]TP-OH)
active: all assays above
